How the values were obtained:
Assay type in all cases: cell-based, human
[1] = test system: Notch1; test: Notch1 protein expression, immunoblot, VTC-037 GSCs; conditions: 50 μM, 24 h
Method: (§1) Cells were lysed in RIPA buffer (0.1% sodium dodecyl sulphate, 50 mM Tris pH 7.4, 150 mM NaCl, 1 mM EDTA, 1% Triton X-100, 1% deoxycholic acid, 200 μM Na3VO4, and 1 mM NaF) supplemented with Halt^TM Protease and Phosphatase Inhibitor Cocktail (Thermo Fisher). Lysates were sonicated prior to centrifugation at 4 °C for 20 min at 10,000 x g. Protein concentration was quantified using the DC protein assay (Bio-Rad Laboratories) and a standard curve obtained with increasing concentrations of Bovine Serum Albumin (BSA; Fisher Scientific). Protein samples were normalized to 20 μg total protein per lane and resolved by SDS-PAGE electrophoresis. 4X Bolt LDS sample buffer supplemented with 400 mM DTT (final concentration 1X Bolt LDS with 100 mM DTT) was added to samples before heating at 70 °C for 10 min. SDS-PAGE was run using NuPAGE Bis-Tris 4%–12% gradient gels (Thermo Fisher) with MES or MOPS running buffer according to manufacturer’s instructions. Spectra™ Multicolor Protein Ladder (Thermo Fisher) or Precision Plus Protein™ Kaleidoscope™ Prestained Protein Standards (Bio-Rad Laboratories) were included as protein ladders on the same gels. […] Membranes were imaged on a ChemiDoc™ imaging system, and analyzed with Image Lab software (Bio-Rad Laboratories). […]

[2] = test system: Cx43/α-tubulin interaction; test: STORM localization, cross-pair correlation of Cx43/α-tubulin interaction in VTC-037 GSCs; conditions: 50 μM, 24 h, n = 10
Method: Cells were washed once with warm PBS before fixing in 4% paraformaldehyde for 20 min at room temperature or ice-cold methanol for 5 min on ice, washed twice, and held in PBS at 4°C until immunostaining was conducted. Cells were permeabilized and blocked in 5% normal goat or donkey serum (Fisher Scientific) and 0.1% Triton X-100 in PBS for 2 h at room temperature. Primary antibodies rabbit anti-Cx43 (MilliporeSigma; C6219), mouse anti-pan Cadherin (MilliporeSigma; C1821), or mouse anti-α-tubulin (MilliporeSigma; T6199) were diluted in blocking buffer and labeling was performed overnight at 4 °C. […]
Stochastic optical reconstruction microscopy (STORM) acquisition was conducted with a Vutara 350 microscope (Bruker). […] To quantify the spatial relationship between target proteins localized by STORM, we utilized cross-pair correlation analysis. […]

[3] = test system: Cx43; test: Cx43 protein expression, immunoblot, VTC-037 GSCs; conditions: 50 μM, 24 h
Method: as §1

VFFKGVKDRVKGRSD [JM2]
Notch1 protein expression [1]: significantly decreased Notch1 expression at the protein level
Cx43-microtubule interaction (cross-pair correlation) [2]: impaired this interaction in situ
Cx43 protein expression [3]: without affecting Cx43 expression
